Data: ChEMBL document CHEMBL4422673, “Discovery, synthesis and characterization of a series of (1-alkyl-3-methyl-1H-pyrazol-5-yl)-2-(5-aryl-2H-tetrazol-2-yl)acetamides as novel GIRK1/2 potassium channel activators” (Bioorg Med Chem Lett, 2019)
Active and inactive are the calls of the source. The rule behind the calls is not given here.

Columns and labels:
[1] = target: T1, Kir3.1/Kir3.2 (Homo sapiens, UniProt P48051+P48549); test: (§1) Activation of human GIRK1/2 expressed in HEK293 cells co-expressing rat mGlu8 by thallium flux assay; type: cell-based
T1 sequence (P48549 whole entry): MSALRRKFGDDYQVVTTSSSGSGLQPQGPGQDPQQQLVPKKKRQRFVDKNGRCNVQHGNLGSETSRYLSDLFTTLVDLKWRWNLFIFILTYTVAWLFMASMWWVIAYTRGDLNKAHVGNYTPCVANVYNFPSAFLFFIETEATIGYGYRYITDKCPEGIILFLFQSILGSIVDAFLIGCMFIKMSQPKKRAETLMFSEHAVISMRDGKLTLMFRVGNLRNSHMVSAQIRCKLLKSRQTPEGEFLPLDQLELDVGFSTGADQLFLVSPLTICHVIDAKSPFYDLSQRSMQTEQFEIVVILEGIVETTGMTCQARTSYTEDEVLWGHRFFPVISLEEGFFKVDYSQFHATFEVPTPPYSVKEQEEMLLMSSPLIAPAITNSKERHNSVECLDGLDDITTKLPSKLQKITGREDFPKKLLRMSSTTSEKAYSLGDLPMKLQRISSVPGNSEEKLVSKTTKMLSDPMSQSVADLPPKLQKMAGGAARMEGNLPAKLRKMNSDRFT
T1 sequence (P48051 whole entry): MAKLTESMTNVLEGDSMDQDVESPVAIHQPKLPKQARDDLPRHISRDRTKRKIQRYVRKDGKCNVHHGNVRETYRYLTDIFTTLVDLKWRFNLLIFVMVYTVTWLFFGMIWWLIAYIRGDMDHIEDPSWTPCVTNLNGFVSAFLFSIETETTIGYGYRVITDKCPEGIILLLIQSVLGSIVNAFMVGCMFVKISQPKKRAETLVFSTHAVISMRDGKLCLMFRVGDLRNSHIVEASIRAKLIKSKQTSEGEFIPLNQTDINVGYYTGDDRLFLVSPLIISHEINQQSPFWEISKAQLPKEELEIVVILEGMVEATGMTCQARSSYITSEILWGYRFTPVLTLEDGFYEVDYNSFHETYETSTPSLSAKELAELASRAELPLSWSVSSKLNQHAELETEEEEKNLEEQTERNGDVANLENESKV

[2] = target: T2, Kir3.1/Kir3.2 (Homo sapiens) (UniProt P48549+P48051); test: Activation of human GIRK1/2 expressed in HEK293 cells co-expressing rat mGlu8 by thallium flux assay relative to control; type: cell-based
[3] = target: T3, Kir3.1/Kir3.4 (Homo sapiens, UniProt P48544+P48549); test: (§2) Activation of human GIRK1/4 expressed in HEK293 cells co-expressing rat mGlu8 by thallium flux assay; type: cell-based
T3 sequence (P48549 whole entry): T1 sequence (P48549 whole entry)
T3 sequence (P48544 whole entry): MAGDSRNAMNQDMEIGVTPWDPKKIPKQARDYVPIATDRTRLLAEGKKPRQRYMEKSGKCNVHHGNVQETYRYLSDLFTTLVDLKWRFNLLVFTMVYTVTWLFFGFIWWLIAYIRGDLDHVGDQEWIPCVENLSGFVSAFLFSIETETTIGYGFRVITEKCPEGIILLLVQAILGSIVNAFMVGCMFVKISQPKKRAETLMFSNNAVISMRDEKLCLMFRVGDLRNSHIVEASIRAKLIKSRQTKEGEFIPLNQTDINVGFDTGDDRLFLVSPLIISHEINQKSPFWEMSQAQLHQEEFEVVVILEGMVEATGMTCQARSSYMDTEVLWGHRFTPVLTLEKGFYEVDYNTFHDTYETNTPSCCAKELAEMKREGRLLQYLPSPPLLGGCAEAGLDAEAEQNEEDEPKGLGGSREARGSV

[4] = target: Kir3.1/Kir3.4 (Homo sapiens) (UniProt P48549+P48544); test: Activation of human GIRK1/4 expressed in HEK293 cells co-expressing rat mGlu8 by thallium flux assay relative to control; type: cell-based
[5] = Fraction unbound in human plasma; type: ADME, cell-free
[6] = organism: Homo sapiens; test: Ratio of EC50 for activation of human GIRK1/4 expressed in HEK293 cells co-expressing rat mGlu8 by thallium flux assay to EC50 for Activation of human GIRK1/2 expressed in HEK293 cells co-expressing rat mGlu8 by thallium flux assay; type: cell-based
[7] = Stability in mouse plasma; type: ADME, cell-free
[8] = Clearance in human liver microsomes
[9] = Clearance in mouse liver microsomes
[10] = Half life in human liver S9 fraction; type: ADME, subcellular
[11] = Extraction ratio in human liver S9 fraction; type: ADME, subcellular; conditions: read-out: ERH
[12] = target: T4, Kir3.1/Kir3.2 (Homo sapiens, UniProt P48549+P48051); test: as §1; type: cell-based; conditions: hek293
T4 sequence (P48549 whole entry): T1 sequence (P48549 whole entry)
T4 sequence (P48051 whole entry): T1 sequence (P48051 whole entry)

[13] = target: T5, Kir3.1/Kir3.4 (Homo sapiens, UniProt P48549+P48544); test: as §2; type: cell-based; conditions: hek293
T5 sequence (P48549 whole entry): T1 sequence (P48549 whole entry)
T5 sequence (P48544 whole entry): T3 sequence (P48544 whole entry)

[14] = target: T2, Kir3.1/Kir3.2 (Homo sapiens); test: as §1; type: cell-based

Compound	EC50 [1] [nM]	Emax [2]	EC50 [3] [nM]	Emax [4]	Fu [5] [%]	Stability [7]	CLhep predicted [8] [mL/min/kg]	CLhep predicted [9] [mL/min/kg]	t1/2 [10] [h]	hepatic extraction ratio [11]	EC50 [12]	EC50 [13]	Activity [14]	Ratio EC50 [6]
Cc1cc(NC(=O)Cn2nnc(-c3ccc(Cl)c(Cl)c3)n2)n(C2CCCCC2)n1	1220	84%	2200	70%	< 0.3	Unstable	17.4	76	–	–	–	–	–	3 to 5
Cc1cc(NC(=O)Cn2nnc(-c3ccccc3)n2)n(C2CCC(F)(F)CC2)n1	84	68%	383	52%	1.5	Unstable	15.9	80	–	–	–	–	–	–
Cc1cc(NC(=O)Cn2nnc(-c3ccccc3)n2)n(C2CCS(=O)(=O)C2)n1 (configuration not stated)	1030	93%	2170	75%	3.7	Unstable	–	–	10.79	< 0.05	–	–	–	–
Cc1nc(-c2ccccc2)c(NC(=O)Cn2nnc(-c3ccccc3)n2)s1	–	inactive	–	inactive	–	–	–	–	–	–	Not Active	Not Active	–	–
Cc1cc(NC(=O)Cn2nnc(-c3ccccc3)n2)n(CC2CCCCC2)n1	176	77%	283	58%	0.3	Unstable	20.4	88.7	–	–	–	–	–	–
Cc1cc(N(C)C(=O)Cn2nnc(-c3ccccc3)n2)n(C2CCCCC2)n1	–	–	–	–	–	–	–	–	–	–	–	–	inactive	–
Cc1cc(NC(=O)Cn2nnc(-c3ccc(F)c(F)c3)n2)n(C2CCCCC2)n1	116	93%	392	79%	–	–	–	–	–	–	–	–	–	3 to 5
Cc1nc(NC(=O)Cn2nnc(-c3ccccc3)n2)n(-c2ccccc2)n1	–	inactive	–	inactive	–	–	–	–	–	–	Not Active	Not Active	–	–
O=C(Cn1nnc(-c2ccccc2)n1)Nc1cc(C2(C(F)(F)F)CC2)nn1C1CCCCC1	–	inactive	–	inactive	–	–	–	–	–	–	Not Active	Not Active	–	–
O=C(Cn1nnc(-c2ccccc2)n1)Nc1ccccn1	–	inactive	–	inactive	–	–	–	–	–	–	Not Active	Not Active	–	–

The next lines start with results.

EC50 [1] [nM]	Emax [2]	EC50 [3] [nM]	Emax [4]	Fu [5] [%]	Stability [7]	CLhep predicted [8] [mL/min/kg]	CLhep predicted [9] [mL/min/kg]	t1/2 [10] [h]	hepatic extraction ratio [11]	EC50 [12]	EC50 [13]	Activity [14]	Compound	Ratio EC50 [6]
96	92%	259	63%	1.1	Unstable	18.9	87	–	–	–	–	–	Cc1cc(NC(=O)Cn2nnc(-c3ccccc3)n2)n(C2CCCCC2)n1	3
–	96%	–	80%	1	Unstable	17.8	87.1	–	–	–	–	–	Cc1cc(NC(=O)Cn2nnc(-c3cccc(F)c3)n2)n(C2CCCCC2)n1	3 to 5
300	89%	662	66%	–	–	–	–	–	–	–	–	–	Cc1cc(NC(=O)Cn2nnc(-c3cccc(Cl)c3)n2)n(C2CCCCC2)n1	3 to 5
375	87%	1030	49%	0.4	Unstable	18.3	87.7	–	–	–	–	–	Cc1cc(NC(=O)Cn2nncc2-c2ccccc2)n(C2CCCCC2)n1	–
116	87%	412	76%	3	Unstable	14.6	78.2	–	–	–	–	–	Cc1cc(NC(=O)Cn2cc(-c3ccccc3)nn2)n(C2CCCCC2)n1	–
